Data published in the supplement of paper PMC10307832.

Legend:
Experiment in all cases: relative viability (nuclei count vs DMSO), 5 days (fraction); higher = more cells survive
Venetoclax + Phenformin = compound: CC1(C)CCC(CN2CCN(c3ccc(C(=O)NS(=O)(=O)c4ccc(NCC5CCOCC5)c([N+](=O)[O-])c4)c(Oc4cnc5[nH]ccc5c4)c3)CC2)=C(c2ccc(Cl)cc2)C1 [Venetoclax] + N=C(N)NC(=N)NCCc1ccccc1 [Phenformin] (partner 250 µM)
Summary of the method: (§1)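 Cells from lung cancer lines were seeded into 1536-well plates and, one day later, dosed by pin tool. Treatments were either a single drug or a fixed dose of an anchor drug with five library-drug doses (not always all listed) in √10 steps. After 5 days, nuclei were stained in a one-step fixation (final 0.05% Triton X-100, 1% formaldehyde, 1 ug/ml Hoechst) and counted on 4× images, and relative viability is the treated-to-vehicle nuclei ratio, as the median of duplicate plates.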

Venetoclax + OSI-027 = compound: CC1(C)CCC(CN2CCN(c3ccc(C(=O)NS(=O)(=O)c4ccc(NCC5CCOCC5)c([N+](=O)[O-])c4)c(Oc4cnc5[nH]ccc5c4)c3)CC2)=C(c2ccc(Cl)cc2)C1 [Venetoclax] + COc1cccc2cc(-c3nc([C@H]4CC[C@H](C(=O)O)CC4)n4ncnc(N)c34)[nH]c12 [OSI-027] (partner 0.5 µM)
Summary of the method: as §1

Venetoclax + Linsitinib = compound: CC1(C)CCC(CN2CCN(c3ccc(C(=O)NS(=O)(=O)c4ccc(NCC5CCOCC5)c([N+](=O)[O-])c4)c(Oc4cnc5[nH]ccc5c4)c3)CC2)=C(c2ccc(Cl)cc2)C1 [Venetoclax] + C[C@]1(O)C[C@@H](c2nc(-c3ccc4ccc(-c5ccccc5)nc4c3)c3c(N)nccn32)C1 [Linsitinib] (partner 1 µM)
Summary of the method: as §1

Selumetinib + Luminespib = compound: Cn1cnc2c(F)c(Nc3ccc(Br)cc3Cl)c(C(=O)NOCCO)cc21 [Selumetinib] + CCNC(=O)c1noc(-c2cc(C(C)C)c(O)cc2O)c1-c1ccc(CN2CCOCC2)cc1 [Luminespib] (partner 0.01 µM)
Summary of the method: as §1

Cell Line	relative viability (Venetoclax + Phenformin; first compound 0.01 µM)	relative viability (Venetoclax + Phenformin; first compound 0.03162 µM)	relative viability (Venetoclax + Phenformin; first compound 0.1 µM)	relative viability (Venetoclax + Phenformin; first compound 0.3162 µM)	relative viability (Venetoclax + Phenformin; first compound 1 µM)	relative viability (Venetoclax + OSI-027; first compound 0.01 µM)	relative viability (Venetoclax + OSI-027; first compound 0.03162 µM)	relative viability (Venetoclax + OSI-027; first compound 0.1 µM)	relative viability (Venetoclax + OSI-027; first compound 0.3162 µM)	relative viability (Venetoclax + OSI-027; first compound 1 µM)	relative viability (Venetoclax + Linsitinib; first compound 0.01 µM)	relative viability (Venetoclax + Linsitinib; first compound 0.03162 µM)	relative viability (Venetoclax + Linsitinib; first compound 0.1 µM)	relative viability (Venetoclax + Linsitinib; first compound 0.3162 µM)	relative viability (Venetoclax + Linsitinib; first compound 1 µM)	relative viability (Selumetinib + Luminespib; first compound 0.02 µM)	relative viability (Selumetinib + Luminespib; first compound 0.06325 µM)	relative viability (Selumetinib + Luminespib; first compound 0.2 µM)	relative viability (Selumetinib + Luminespib; first compound 0.6325 µM)
HCC-78	0.782	0.776	0.699	0.671	0.606	0.4	0.387	0.35	0.347	0.371	0.494	0.563	0.433	0.571	0.596				
HOP-62	0.622	0.655	0.67	0.649	0.64	0.879	0.861	0.842	0.838	0.78	1.04	0.968	1.15	0.938	0.948	0.862	0.754	0.656	0.384
NCI-H1623	0.556	0.607	0.597	0.64	0.63	0.419	0.424	0.414	0.444	0.424						0.41	0.352	0.394	0.41
NCI-H3122	0.366	0.361	0.341	0.339	0.282	1.09	0.979	0.983	0.871	0.909	1.08	1.02	0.969	1.06	1.06	0.0969	0.0828	0.0994	0.0908
RERF-LC-KJ	0.382	0.414	0.418	0.458	0.442	0.555	0.552	0.577	0.577	0.521	0.792	0.899	0.904	0.883	0.85	1.32	0.924	1.06	0.987
NCI-H1703											0.549	0.652	0.81	0.756	0.755				
HCC-15	0.451	0.48	0.455	0.448	0.406	0.653	0.67	0.721	0.658	0.549	0.763	0.826	0.742	0.794	0.771	0.199	0.19	0.158	0.0809
NCI-H1666	0.546	0.605	0.531	0.582	0.56	0.699	0.843	0.839	0.733	0.784	0.909	0.864	0.731	0.759	0.745	0.996	0.829	0.943	0.757
NCI-H1395	0.45	0.444	0.405	0.473	0.428	0.623	0.603	0.605	0.656	0.662	0.951	0.996	1.04	1.25	1.11	0.575	0.713	0.643	0.694
